Here are results for eight molecules from patent US20030236213A1, “Mimics of acyl coenzyme-A comprising pantolactone and pantothenic acid derivatives, compositions thereof, and methods of cholesterol management and related uses” (priority 2002, published 2003).

The subject of one series is obese female Zucker rats. In words: Oral daily treatment of obese female Zucker rats for fourteen days. Format: in vivo, rat. As to conditions: 14 days; for Glucose, Percent Change from Pre-treatment: blood, 6-hour fast; for Glucose, Percent Change from Pre-treatment / BHA, Percent Change from Pre-treatment / HDL-C, Percent Change from Pre-treatment / Insulin, Percent Change from Pre-treatment / NEFA, Percent Change from Pre-treatment / Non HDL-C, Percent Change from Pre-treatment / TC, Percent Change from Pre-treatment / TG, Percent Change from Pre-treatment: oral daily; for % wt. gain / HDL-C/non HDL-C: oral gavage daily; for BHA, Percent Change from Pre-treatment / HDL-C, Percent Change from Pre-treatment / Insulin, Percent Change from Pre-treatment / NEFA, Percent Change from Pre-treatment / Non HDL-C, Percent Change from Pre-treatment / TC, Percent Change from Pre-treatment / TG, Percent Change from Pre-treatment: serum. The method, then: In a number of different experiments, compounds described in Table 1 were administered daily to 11-13 week old chow fed obese female Zucker rats for 14 days in the morning by oral gavage in 20% ethanol/80% polyethylene glycol-200 (dosing vehicle)(“EP”). The dosing vehicle was administered to control animals in parallel experiments.
Body weight was determined daily prior to dosing. Animals were allowed free access to rodent chow and water throughout the study. Blood glucose was determined after a 6-hour fast in the afternoon without anesthesia from a tail vein. Serum was also prepared from a blood sample subsequently obtained from the orbital venous plexus (with O2/CO2 anesthesia) prior to and after one week treatment and used lipid and insulin determinations. At two weeks, blood glucose was again determined after a 6-hour fast without anesthesia from a tail vein. Soon thereafter, animals were sacrificed by CO2 inhalation in the afternoon and cardiac blood serum was collected and assessed for various lipids and insulin.

A further series has as its system primary rat hepatocytes. Nature of the series: Synthesis of total lipids (14C-acetate labeling) in primary rat hepatocytes. As to conditions: Hepatocyte, 14C-acetate labeling 4 hr at 37° C., 1-300 μM, read-out: IC50, total lipid synthesis. Format: cell-based. The method, then: A male Sprague-Dawley rate was anesthetized by administration of sodium pentobarbitol by intraperitoneal at 80 mg/kg. In situ perfusion of the liver was performed as follows. The abdomen of the animal was opened, the portal vein canulated, and the liver perfused with WOSH solution (149 mM NaCl, 9.2 mM Na HEPES, 1.7 mM Fructose, 0.5 mM EGTA, 0.029 mM Phenol red, 10 U/ml heparin, pH 7.5) at a flow rate of 30 ml/min for 6 minutes. To digest the liver, DSC solution (6.7 mM KCl, 143 mM NaCl, 9.2 mM Na HEPES, 5 mM CaCl2-2H2O, 1.7 mM Fructose, 0.029 mM Phenol red, 0.2% BSA, 100 U/ml collagenase Type I, 160 BAEE/ml trypsin inhibitor, pH 7.5) was perfused through the liver at a flow rate of 30 ml/min for 6 minutes at a temperature of 37° C. After digestion, cells were dispersed in a solution of DMEM-(DMEM containing 2 mM GlutMax-1, 0.2% BSA, 5% FBS, 12 nM insulin, 1.2 μM hydrocortisone) to stop the digestion process. The crude cell suspension was filtered through three layers of stainless steel mesh with pore sizes of 250, 106, and 75 μm respectively. Filtered cells were centrifuged at 50×g for two minutes and the supernatant discarded. The resulting cell pellet was resuspended in DMEM and centrifuged again. […]

For the molecule `CC(C)(CO)C(O)C(=O)NCCNC(=O)C(O)C(C)(C)CO` (racemic) [Compound V2, N-[2-(2,4-Dihydroxy-3,3-dimethylbutyrylamino)-ethyl]-2,4-dihydroxy-3,3-dimethylbutyramide], in the series with obese female Zucker rats (30 mg/kg/day), the “Glucose, Percent Change from Pre-treatment” value (shortened to “Glucose, Percent Change”) is −8%; the “% wt. gain” value worked out at 10%; the “HDL-C/non HDL-C” value came to 2; the “BHA, Percent Change from Pre-treatment” value is reported as 58%. In the series on obese female Zucker rats (30 mg/kg/day), the “HDL-C, Percent Change from Pre-treatment” value is −20%; the “Insulin, Percent Change from Pre-treatment” value (shortened to “Insulin, Percent Change”) is recorded as −53%; the “NEFA, Percent Change from Pre-treatment” value is listed as −23%; the “Non HDL-C, Percent Change from Pre-treatment” value (shortened to “Non HDL-C, Percent Change”) was 23%. For the same molecule, in the series with obese female Zucker rats (30 mg/kg/day), the “TC, Percent Change from Pre-treatment” value is −13% and the “TG, Percent Change from Pre-treatment” value is reported as 36%.
In general, IC50 refers to the concentration that gives 50% inhibition. Consider `Cc1cc(OCCCCC(C)(C)CO)cc(C)c1NC(=O)C(O)C(C)(C)CO` (centres unmarked) [Compound AC, 2,4-dihydroxy-N-[4-(6-hydroxy-5,5-dimethyl-hexyloxy)-2,6-dimethyl-phenyl]-3,3-dimethyl-butyramide], for which, in the series on primary rat hepatocytes, the IC50 worked out at 2100 nM.
For `CC(C)(CO)C(O)C(=O)NCCOCCNC(=O)C(O)C(C)(C)CO` (centres unmarked) [U, N-{2-[2-(2,4-Dihydroxy-3,3-dimethylbutyrylamino)-ethoxy]-ethyl}-2,4-dihydroxy-3,3-dimethylbutyramide], in the series with obese female Zucker rats (100 mg/kg/day), the “Glucose, Percent Change” value is recorded as −3%; the “% wt. gain” value turned out to be 9%; the “HDL-C/non HDL-C” value worked out at 2; the “BHA, Percent Change from Pre-treatment” value is listed as 254%. In addition, in the series on obese female Zucker rats (100 mg/kg/day), the “HDL-C, Percent Change from Pre-treatment” value was found to be 14%; the “Insulin, Percent Change” value was 6%; the “NEFA, Percent Change from Pre-treatment” value is 13%; the “Non HDL-C, Percent Change” value is −2%. In the series with obese female Zucker rats (100 mg/kg/day), the “TC, Percent Change from Pre-treatment” value is reported as 8% and the “TG, Percent Change from Pre-treatment” value is 1%.
By melting point is commonly meant the temperature, or range, at which the solid turns liquid. Molecule `CC(C)(CO)C(O)C(=O)NCc1cccnc1` (centres unmarked) [AB, 2,4-Dihydroxy-3,3-dimethyl-N-pyridin-3ylmethyl-butyramide] gave a melting point of 120 to 121.5 °C.
Consider `CC(C)(CO)[C@H](O)C(=O)NCCNC(=O)[C@@H](O)C(C)(C)CO` [Compound V4], for which the melting point lay in the range of 124.8 to 124.9 °C. In the series on obese female Zucker rats (30 mg/kg/day), the “Glucose, Percent Change” value was determined as 2%; the “% wt. gain” value was 12%; the “HDL-C/non HDL-C” value is 1; the “BHA, Percent Change from Pre-treatment” value was found to be 79%. In the series on obese female Zucker rats (30 mg/kg/day), the “HDL-C, Percent Change from Pre-treatment” value is recorded as 5%; the “Insulin, Percent Change” value is listed as 4%; the “NEFA, Percent Change from Pre-treatment” value was −28%; the “Non HDL-C, Percent Change” value was 75%. Moreover, in the series on obese female Zucker rats (30 mg/kg/day), the “TC, Percent Change from Pre-treatment” value is 23% and the “TG, Percent Change from Pre-treatment” value is given as 22%.
For `CC(C)(CO)[C@H](O)C(=O)NCCNC(=O)[C@H](O)C(C)(C)CO` [Compound V1, (R,S)-N-[2-(2,4-Dihydroxy-3,3-dimethylbutyrylamino)-ethyl]-2,4-dihydroxy-3,3-dimethyl-butyramide], in the series with obese female Zucker rats (100 mg/kg/day), the “Glucose, Percent Change” value was −3%; the “% wt. gain” value is recorded as 11%; the “HDL-C/non HDL-C” value was determined as 1; the “BHA, Percent Change from Pre-treatment” value is 63%. For the same molecule, in the series with obese female Zucker rats (100 mg/kg/day), the “HDL-C, Percent Change from Pre-treatment” value came out at 77%; the “Insulin, Percent Change” value is given as −20%; the “NEFA, Percent Change from Pre-treatment” value was 7%; the “Non HDL-C, Percent Change” value is listed as 6%. In the series with obese female Zucker rats (100 mg/kg/day), the “TC, Percent Change from Pre-treatment” value is 34% and the “TG, Percent Change from Pre-treatment” value is 22%.
Consider `CCCCCOc1cc(C)c(NC(=O)C(O)C(C)(C)CO)c(C)c1` (centres unmarked) [AA, N-(2,6-dimethyl-4-pentyloxy-phenyl)-2,4-dihydroxy-3,3-dimethyl-butyramide], for which the melting point lay within 101 to 102.5 °C. Also, in the series with obese female Zucker rats (100 mg/kg/day), the “Glucose, Percent Change” value is reported as 10%; the “% wt. gain” value was determined as 11%; the “HDL-C/non HDL-C” value was found to be 3; the “BHA, Percent Change from Pre-treatment” value was 51%. In the series on obese female Zucker rats (100 mg/kg/day), the “HDL-C, Percent Change from Pre-treatment” value is given as 87%; the “Insulin, Percent Change” value was −10%; the “NEFA, Percent Change from Pre-treatment” value is recorded as −30%; the “Non HDL-C, Percent Change” value is recorded as −17%. Moreover, in the series with obese female Zucker rats (100 mg/kg/day), the “TC, Percent Change from Pre-treatment” value is given as 41% and the “TG, Percent Change from Pre-treatment” value was −38%.
With `CC(C)(CO)[C@@H](O)C(=O)NCCNC(=O)[C@H](O)C(C)(C)CO` [Compound V3, (R,R)-N-[2-(2,4-Dihydroxy-3,3-dimethylbutyrylamino)-ethyl]-2,4-dihydroxy-3,3-dimethylbutyramide], the melting point lay within 124.8 to 124.9 °C. In the series on obese female Zucker rats (30 mg/kg/day), the “Glucose, Percent Change” value was 3%; the “% wt. gain” value stood at 9%; the “HDL-C/non HDL-C” value came to 2; the “BHA, Percent Change from Pre-treatment” value came to 69%. For the same molecule, in the series with obese female Zucker rats (30 mg/kg/day), the “HDL-C, Percent Change from Pre-treatment” value is 7%; the “Insulin, Percent Change” value was found to be 11%; the “NEFA, Percent Change from Pre-treatment” value is −16%; the “Non HDL-C, Percent Change” value was determined as 16%. Also, in the series on obese female Zucker rats (30 mg/kg/day), the “TC, Percent Change from Pre-treatment” value stood at 9% and the “TG, Percent Change from Pre-treatment” value was found to be 14%.
